# In patent publication US9427415B2, “Methods and compositions for modifying sensorial perception” (The Procter & Gamble Company, priority 2014, dated 2016):
# Like-named read-outs stand apart in the source and are kept apart here.
# What was measured:
# TRPA1V1 = assay: Intracellular calcium (Fluo-4, FLIPR) activation of TRPA1V1 cells (co-expressing TRPA1 and TRPV1) by GRAS compounds; type: cell-based, human; conditions: relative to AITC 30 μM;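 note: HEK293 cells co-expressing TRPA1 and TRPV1, fluorescence read at 488/514 nm after baseline subtraction, recorded every 2 s over 10 min, ionomycin 10 µM and buffer as controls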
# Method: TRPV1, TRPA1, TRPA1V1 and pcDNA3 cells were grown in 15 mL growth medium [high glucose DMEM (Dulbecco's modification of Eagle's medium) supplemented with 10% FBS (fetal bovine serum), 100 μg/mL penicillin/streptomycin, 100 μg/mL G418] in a 75 cm^2 flask for 3 days in a mammalian cell culture incubator at 33° C. and 5% CO2. TRP Cells were detached with 8 mL of PBS (without calcium or magnesium); for pcDNA3 cells, trypsin was used for releasing the cells. The detached cells were spun at low speed (800-900 rpm for 3 min) to pellet the cells. […] The cells were washed once with 45 mL assay buffer (1×HBSS, 20 mM HEPES) by low speed centrifugation (800-900 rpm for 3 min) and resuspended in 11 mL of the assay buffer in a reagent reservoir. […] The plates were set at room temperature for 30 min. The plates were read in a FLIPR^TETRA instrument (Molecular Devices, Sunnyvale, Calif.) at λex 488 nm and λem 514 nm to record baseline fluorescence following which 20 μL of test material at 1 mM or 100 μM final concentration for pure compounds in a GRAS library or 0.004% for extracts. For agonists, capsaicin 350 nM and AITC at 30 μM; and for controls, ionomycin 10 μM and buffer alone) was added to each well using the dispenser provided in the FLIPR. The data point was recorded every 2 seconds for a total of 10 min.
# Average value for activation from three independent assay plates are presented as % of agonist value (AITC, 30 μM for TRPA1 and capsaicin, 350 nM for TRPV1. For TRPA1V1, we used AITC, 30 μM or capsaicin, 350 nM depending on if the compound is an A1 agonist or a V1 agonist. For compounds that activated both A1 and V1, we used AITC for normalization). Variation among triplicates was within 10% of each other. Assayed at 1 mM for pure compounds and 0.004% for extracts.
# human TRPA1 = molecular target: T1, human TRPA1 (Homo sapiens, UniProt O75762, K186N/R3C/R58T); assay: Intracellular calcium (Fluo-4, FLIPR) activation of TRPA1 cells by GRAS compounds; type: cell-based; conditions: for activation at 1000 µM / activation at 100 µM: read-out: A1 activation, % of agonist value;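 for all read-outs here: TRPA1-expressing cells, fluorescence read on a FLIPR Tetra (ex 488 nm, em 514 nm) every 2 s for 10 min after compound addition, baseline subtracted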
# T1 construct: expressed in transfected cells; pcDNA3 control cells
# [1] = Table 1(c), 1 mM, relative to AITC 30 μM
# [2] = Table 1(d), 1 mM, relative to AITC 30 μM
# [3] = Table 1(e), 1 mM, relative to AITC 30 μM
# [4] = Table 1(c), relative to AITC 30 μM
# T1 sequence (O75762 whole entry R3C/R58T/K186N): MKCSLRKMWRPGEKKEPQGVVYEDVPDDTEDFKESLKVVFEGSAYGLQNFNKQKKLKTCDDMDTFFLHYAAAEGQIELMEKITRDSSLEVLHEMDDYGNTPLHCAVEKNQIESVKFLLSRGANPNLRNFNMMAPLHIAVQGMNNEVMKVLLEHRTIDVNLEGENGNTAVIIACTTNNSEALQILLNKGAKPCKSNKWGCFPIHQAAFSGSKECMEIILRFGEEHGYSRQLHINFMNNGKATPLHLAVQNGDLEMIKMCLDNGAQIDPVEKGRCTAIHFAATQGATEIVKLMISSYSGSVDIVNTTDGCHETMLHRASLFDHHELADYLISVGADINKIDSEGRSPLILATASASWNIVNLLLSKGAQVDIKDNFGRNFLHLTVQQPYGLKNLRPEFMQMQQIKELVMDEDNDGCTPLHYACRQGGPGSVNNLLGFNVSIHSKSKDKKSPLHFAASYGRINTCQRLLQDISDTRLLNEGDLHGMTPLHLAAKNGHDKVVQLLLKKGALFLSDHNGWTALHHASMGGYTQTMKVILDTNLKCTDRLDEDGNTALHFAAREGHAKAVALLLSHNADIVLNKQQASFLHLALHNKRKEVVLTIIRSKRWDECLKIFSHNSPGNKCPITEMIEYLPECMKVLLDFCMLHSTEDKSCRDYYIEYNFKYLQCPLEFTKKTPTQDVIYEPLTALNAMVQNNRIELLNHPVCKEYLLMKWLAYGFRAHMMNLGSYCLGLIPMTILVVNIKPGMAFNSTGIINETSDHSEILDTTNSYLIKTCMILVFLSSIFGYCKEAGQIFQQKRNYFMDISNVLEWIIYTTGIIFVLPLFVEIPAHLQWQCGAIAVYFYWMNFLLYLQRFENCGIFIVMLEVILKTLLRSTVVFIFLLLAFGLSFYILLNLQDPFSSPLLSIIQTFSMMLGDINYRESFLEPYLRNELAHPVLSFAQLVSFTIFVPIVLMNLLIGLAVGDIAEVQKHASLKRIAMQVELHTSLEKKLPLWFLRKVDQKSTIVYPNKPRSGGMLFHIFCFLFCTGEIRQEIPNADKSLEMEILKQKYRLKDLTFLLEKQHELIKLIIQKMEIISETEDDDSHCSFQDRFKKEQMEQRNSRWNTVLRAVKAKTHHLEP
smiles,measurement,setting,value
CC(C)=CCC[C@](C)(O)C1CC=C(C)CC1 (stereo partly drawn) [Bisabolol],"A1V1 activation, % of agonist value","TRPA1V1; Table 1(c), 1 mM",73.53%
same,activation at 1000 µM,human TRPA1; [1],68%
O=CC=Cc1ccccc1 [Cinnamaldehyde],"A1V1 activation, % of agonist value","TRPA1V1; Table 1(e), 1 mM",77.3%
same,activation at 1000 µM,human TRPA1,51.2%
O=C(O)C=Cc1ccccc1 [Cinnamic acid],"A1V1 activation, % of agonist value","TRPA1V1; Table 1(c), 1 mM",42.5%
same,activation at 1000 µM,human TRPA1; [1],37.7%
CC(=O)OCC=Cc1ccccc1 [Cinnamyl acetate],"A1V1 activation, % of agonist value","TRPA1V1; Table 1(c), 1 mM",89.73%
same,activation at 1000 µM,human TRPA1; [1],85%
OCC=Cc1ccccc1 [Cinnamyl alcohol],"A1V1 activation, % of agonist value","TRPA1V1; Table 1(c), 1 mM",79.4%
same,activation at 1000 µM,human TRPA1,89.8%
CCCCC/C=C\CCO [Cis-3-nonen-1-ol],"A1V1 activation, % of agonist value","TRPA1V1; Table 1(d), 1 mM",41.22%
same,activation at 1000 µM,human TRPA1; [2],55%
COC(C=C(C)CCC=C(C)C)OC [Citral dimethyl acetal],"A1V1 activation, % of agonist value","TRPA1V1; Table 1(e), 1 mM",137.2%
same,activation at 1000 µM,human TRPA1; [3],102%
CC(C)=CCCC(C)=CC=O [Citral],"A1V1 activation, % of agonist value","TRPA1V1; Table 1(c), 1 mM",132.7%
same,activation at 1000 µM,human TRPA1; [1],145%
CCCC(=O)OCCC(C)CCC=C(C)C (stereo not drawn) [Citronellyl butyrate],"A1V1 activation, % of agonist value","TRPA1V1; Table 1(c), 100 μM (*)",57.9%
same,activation at 100 µM,human TRPA1; [4],44.9%
CCC(=O)OCCC(C)CCC=C(C)C (stereo not drawn) [Citronellyl propionate],"A1V1 activation, % of agonist value","TRPA1V1; Table 1(c), 100 μM (*)",43.2%
same,activation at 100 µM,human TRPA1; [4],52.5%
CC(C=O)Cc1ccc(C(C)C)cc1 (stereo not drawn) [Cyclamen aldehyde],"A1V1 activation, % of agonist value","TRPA1V1; Table 1(e), 1 mM",120.9%
same,"A1 activation, % of agonist value",human TRPA1; [3],94.1%
CCCCCCCCCC(=O)O [Decanoic acid],"A1V1 activation, % of agonist value","TRPA1V1; Table 1(c), 1 mM",73.45%
same,activation at 1000 µM,human TRPA1; [1],65.1%
CC(=O)CCC1=C(C)CCCC1(C)C [Dihydro-beta-ionone],"A1V1 activation, % of agonist value","TRPA1V1; Table 1(c), 1 mM",64.07%
same,"A1 activation, % of agonist value",human TRPA1; [1],64.4%
CCOC(=O)C(Cc1ccccc1)C(C)=O (stereo not drawn) [Ethyl 2-benzylacetoacetate],"A1V1 activation, % of agonist value","TRPA1V1; Table 1(c), 1 mM",115%
same,activation at 1000 µM,human TRPA1,98%
CCOC(=O)C(C)S (stereo not drawn) [Ethyl 2-mercaptopropionate],"A1V1 activation, % of agonist value","TRPA1V1; Table 1(c), 100 μM (*)",70.2%
same,activation at 100 µM,human TRPA1; [4],88.3%
CCCCCC=CC(=O)OCC [Ethyl 2-octenoate],"A1V1 activation, % of agonist value","TRPA1V1; Table 1(c), 1 mM",120%
same,activation at 1000 µM,human TRPA1; [1],128%
CCCCCC(=O)CCCC(=O)OCC [Ethyl 5-oxodecanoate],"A1V1 activation, % of agonist value","TRPA1V1; Table 1(d), 1 mM",28.24%
same,activation at 1000 µM,human TRPA1; [2],51%
CCOC(=O)c1ccccc1 [Ethyl benzoate],"A1V1 activation, % of agonist value","TRPA1V1; Table 1(c), 1 mM",60%
same,activation at 1000 µM,human TRPA1; [1],70%
CCOC(=O)CCc1ccccc1 [Ethyl hydrocinnamate],"A1V1 activation, % of agonist value","TRPA1V1; Table 1(d), 1 mM",50.9%
same,activation at 1000 µM,human TRPA1; [2],72.2%
CCOC(=O)c1ccc(OC)cc1 [Ethyl p-anisate],"A1V1 activation, % of agonist value","TRPA1V1; Table 1(c), 1 mM",93.1%
same,activation at 1000 µM,human TRPA1; [1],91.2%
CCOC(=O)c1ccccc1O [Ethyl salicylate],"A1V1 activation, % of agonist value","TRPA1V1; Table 1(d), 1 mM",28%
same,activation at 1000 µM,human TRPA1; [2],41%
CCOc1cc(C2OCC(C)O2)ccc1O (stereo not drawn) [Ethyl vanillin propylene glycol acetal],"A1V1 activation, % of agonist value","TRPA1V1; Table 1(c), 1 mM",72.64%
same,"A1 activation, % of agonist value",human TRPA1; [1],66.41%
C=CC(=O)CC [Ethyl vinyl ketone],"A1V1 activation, % of agonist value","TRPA1V1; Table 1(d), 1 mM",40.61%
same,activation at 1000 µM,human TRPA1; [2],79.5%
C=CCc1ccc(O)c(OC)c1 [Eugenol],"A1V1 activation, % of agonist value","TRPA1V1; Table 1(c), 1 mM",91.29%
same,activation at 1000 µM,human TRPA1; [1],79%
C=CCc1ccc(OC(C)=O)c(OC)c1 [Eugenyl acetate],"A1V1 activation, % of agonist value","TRPA1V1; Table 1(c), 1 mM",83.94%
same,activation at 1000 µM,human TRPA1; [1],75.4%
C=CCc1ccc(OC(=O)CC(C)C)c(OC)c1 [Eugenyl isovalerate],"A1V1 activation, % of agonist value","TRPA1V1; Table 1(e), 1 mM",79.29%
same,activation at 1000 µM,human TRPA1; [3],59.7%
"c1ccc(CCCC2CCCO2)cc1 (stereo not drawn) [Furan, tetrahydro-2-(3-phenylpropyl)-]","A1V1 activation, % of agonist value","TRPA1V1; Table 1(e), 1 mM",72.09%
same,activation at 1000 µM,human TRPA1; [3],26%
CC(=O)OCc1ccco1 [Furfuryl acetate],"A1V1 activation, % of agonist value","TRPA1V1; Table 1(d), 1 mM",91.3%
same,activation at 1000 µM,human TRPA1; [2],120%
CC(=O)SCc1ccco1 [Furfurylthiol acetate],"A1V1 activation, % of agonist value","TRPA1V1; Table 1(d), 1 mM",60%
same,"A1 activation, % of agonist value",human TRPA1; [2],75.5%
CCCCCCOC(=O)CCC [Hexyl butyrate],"A1V1 activation, % of agonist value","TRPA1V1; Table 1(e), 1 mM",55.89%
same,activation at 1000 µM,human TRPA1; [3],43.2%
CCCCCCOC(=O)c1cccnc1 [Hexyl nicotinate],"A1V1 activation, % of agonist value","TRPA1V1; Table 1(d), 1 mM",54.4%
same,activation at 1000 µM,human TRPA1; [2],72.9%
CC(=O)OCCC(C)C [Isoamyl acetate],"A1V1 activation, % of agonist value","TRPA1V1; Table 1(c), 1 mM",61.80%
same,activation at 1000 µM,human TRPA1; [1],49.6%
CNc1ccccc1C(=O)OCC(C)C [Isobutyl N-methyl anthranilate],"A1V1 activation, % of agonist value","TRPA1V1; Table 1(d), 1 mM",36.7%
same,"A1 activation, % of agonist value",human TRPA1; [2],59.73%
CC=Cc1ccc(OC(C)=O)c(OC)c1 [Isoeugenyl acetate],"A1V1 activation, % of agonist value","TRPA1V1; Table 1(c), 1 mM",68.34%
same,activation at 1000 µM,human TRPA1; [1],57.6%
CC=Cc1ccc(OC(=O)Cc2ccccc2)c(OC)c1 [Isoeugenyl phenylacetate],"A1V1 activation, % of agonist value","TRPA1V1; Table 1(c), 1 mM",58.40%
same,activation at 1000 µM,human TRPA1; [1],59.1%
CC(C)N=C=S [Isopropyl isothiocyanate],"A1V1 activation, % of agonist value","TRPA1V1; Table 1(e), 1 mM",71.6%
same,activation at 1000 µM,human TRPA1; [3],41.8%
CC(C)OC(=O)Cc1ccccc1 [Isopropyl phenylacetate],"A1V1 activation, % of agonist value","TRPA1V1; Table 1(d), 1 mM",60.9%
same,activation at 1000 µM,human TRPA1; [2],80.2%
C=CCCCN=C=S [Isothiocyanic acid 4-penten-1-yl ester],"A1V1 activation, % of agonist value","TRPA1V1; Table 1(c), 100 μM (*)",47.3%
same,"A1V1 activation, % of agonist value","TRPA1V1; Table 1(e), 1 mM",74.8%
same,activation at 100 µM,human TRPA1; [4],51.6%
same,activation at 1000 µM,human TRPA1; [3],62.2%
CC(=O)O[C@@H]1C[C@H](C)CC[C@H]1C(C)C [L-Menthyl acetate],"A1V1 activation, % of agonist value","TRPA1V1; Table 1(e), 1 mM",60.47%
same,"A1 activation, % of agonist value",human TRPA1; [3],44.88%
C=C(C)[C@@H]1CC=C(C=O)CC1 [L-Perillaldehyde],"A1V1 activation, % of agonist value","TRPA1V1; Table 1(c), 1 mM",138.2%
same,"A1 activation, % of agonist value",human TRPA1; [1],127.7%
CC1=CC(=O)[C@@H](C(C)C)CC1 [L-Piperitone],"A1V1 activation, % of agonist value","TRPA1V1; Table 1(e), 1 mM",68.40%
same,"A1 activation, % of agonist value",human TRPA1; [3],45%
C=CC(C)(O)CCC=C(C)C (stereo not drawn) [Linalool],"A1V1 activation, % of agonist value","TRPA1V1; Table 1(d), 1 mM",20%
same,activation at 1000 µM,human TRPA1; [2],52.6%
C=CC(C)(CCC=C(C)C)OC(=O)c1ccccc1 (stereo not drawn) [Linalyl benzoate],"A1V1 activation, % of agonist value","TRPA1V1; Table 1(c), 100 μM (*)",55.3%
same,activation at 100 µM,human TRPA1; [4],44.4%
CCC(=O)Oc1c(C)occc1=O [Maltol propionate],"A1V1 activation, % of agonist value","TRPA1V1; Table 1(c), 1 mM",81.97%
same,"A1 activation, % of agonist value",human TRPA1; [1],85.04%
CC(C)=CCCC(C)C=O (stereo not drawn) [Melonal],"A1V1 activation, % of agonist value","TRPA1V1; Table 1(c), 1 mM",57%
same,"A1 activation, % of agonist value",human TRPA1; [1],52%
COC(=O)c1ccccc1OC [Methyl 2-methoxybenzoate],"A1V1 activation, % of agonist value","TRPA1V1; Table 1(c), 1 mM",74.68%
same,activation at 1000 µM,human TRPA1; [1],71.2%
CSSc1ccoc1C [Methyl 2-methyl-3-furyl disulfide],"A1V1 activation, % of agonist value","TRPA1V1; Table 1(c), 1 mM",52%
same,activation at 1000 µM,human TRPA1; [1],52.6%
CCCCCCC#CC(=O)OC [Methyl 2-nonynoate],"A1V1 activation, % of agonist value","TRPA1V1; Table 1(d), 1 mM",76.1%
same,activation at 1000 µM,human TRPA1; [2],101%
COC(=O)CCCc1ccccc1 [Methyl 4-phenylbutyrate],"A1V1 activation, % of agonist value","TRPA1V1; Table 1(c), 1 mM",50.30%
same,activation at 1000 µM,human TRPA1; [1],58.4%
CNc1ccccc1C(=O)OC [Methyl N-methylanthranilate],"A1V1 activation, % of agonist value","TRPA1V1; Table 1(c), 1 mM",86.81%
same,activation at 1000 µM,human TRPA1; [1],83.6%
CCCCC/C=C\C/C=C\CCCCCCCC(=O)OC [Methyl linoleate],"A1V1 activation, % of agonist value","TRPA1V1; Table 1(e), 1 mM",81.7%
same,activation at 1000 µM,human TRPA1; [3],31%
COC(=O)c1ccccc1NC=O [Methyl o-formamidobenzoate],"A1V1 activation, % of agonist value","TRPA1V1; Table 1(c), 1 mM",75.64%
same,activation at 1000 µM,human TRPA1; [1],75.4%
COC(=O)c1ccc(OC)cc1 [Methyl p-anisate],"A1V1 activation, % of agonist value","TRPA1V1; Table 1(c), 1 mM",66.24%
same,activation at 1000 µM,human TRPA1; [1],57.5%
